“Also recorded” adds a separate entry of the source. Where two headings read alike, the source gives them in different places.
Tests used:
[1] = test system: kidney cancer cell line, UMRC; experiment: Inhibition of growth of kidney cancer cell line UMRC, single agents, 7 days; assay type: cell-based; conditions: 7 days (FIG. 6A vs 6B)
Text: (§1) To determine whether there is tumor type specificity of the inhibitory properties of PP2A inhibitors, retinoic acid and Trichostatin A, we measured their inhibitory effects as single agents against the GBM line U373, a breast cancer line, MCF-7 (obtained from ATCC) and a kidney cancer cell line, UMRC (UMRC obtained by Dr. Zhuang, NINDS, NIH from the Intramural Research Support Program, SAIC, National Cancer Institute, Frederick Cancer Research and Development Center).

[2] = test system: breast cancer line, MCF-7; experiment: Inhibition of growth of breast cancer line MCF-7, single agents, 7 days; assay type: cell-based; conditions: for Inhibition of MCF-7 growth (in words): individual doses, 7 days (FIG. 6C); for Sensitivity of MCF-7 compared with U373 (in words): single agents, 7 days (FIG. 6C vs 6B)
Text: as §1

GBM cell line U373 = experiment: cells; assay type: cell-based, human; conditions: for Inhibition of U373 growth as single agent (in words): individual treatment, 7 days; for Concentration range of activity against U373 (in words): single agent (FIG. 5A, 5B)
Protocol: To identify novel therapeutic targets for the treatment of glioblastoma multiforme (GBM), cantharidin analogs were evaluated for their ability to inhibit growth of glioblastoma multiforme cells. Specifically, GBM cell line U373 was used in evaluations.
The total number of cells is counted in the triplicate cultures at each dose and in controls after 7 days and the average number of cells and the standard deviation is determined.
The amount of inhibition of GBM cell growth is expressed as the proportion of the number of cells in the experimental dishes compared to the number of cells in control dishes containing only the drug vehicle and culture medium. The average percent of control is plotted and bracketed by one standard deviation calculated from the triplicate measurements.

PP1 = conditions: cited from earlier work
PP2A = conditions: cited from earlier work
[3] = cited from earlier work; for Urinary tract toxicity (in words): in vivo
GBM cell line U343 MG-A = experiment: Growth of GBM cell line U343 MG-A, cell counts over 16 days; assay type: cell-based, human; conditions: 50 μM retinoic acid and/or 10 nM okadaic acid
Protocol: Finally, the GBM cell line U343 MG-A was treated with 50 μM of retinoic acid (RA) and/or 10 nM of okadaic acid (OA), a protein phosphatase-1 inhibitor.
Three cultures for each of four treatments were grown for 16 days with cell counts obtained at baseline and for each of the eight even numbered days. Log transformations were applied to the cell counts, and repeated measures of analysis of variance model used to evaluate the treatment differences over time. Pair wise treatment comparisons used Sidak's statistic to account for multiple testing.

[4] = test system: white blood cell production; conditions: patients and mice; cited from earlier work
primary hepatoma = conditions: cited from earlier work
[5] = for weeks; cited from earlier work
[6] = test system: brain tumor stem cells (BTSC) isolated from GBM; experiment: Differentiation of cultured brain tumor stem cells treated with CNTF (GFAP expression, N-CoR localization); assay type: cell-based
Protocol: (Hughes et al. (1988)) The BTSCs cells were then assessed for GFAP expression along with subcellular N—CoR localization.

[7] = U373, 7 days exposure, estimated from graphic plots (FIG. 3), read-out: IC50, concentration that inhibited brain tumor cell proliferation by 50%
[8] = Homo sapiens, U373 MG, 168 h, read-out: IC50, concentration that inhibited brain tumor cell proliferation by 50%

Molecule: CC(/C=C/C(=O)NO)=C\[C@@H](C)C(=O)c1ccc(N(C)C)cc1 [TSA, Trichostatin A]
- Sensitivity of UMRC compared with U373 (in words) [1]: less sensitive
- Inhibition of MCF-7 growth (in words) [2]: showed an inhibition in growth
- Sensitivity of MCF-7 compared with U373 (in words) [2]: as sensitive as U373
- Percent of Control, Observed (GBM cell line U373; U373, TSA 0.033 μM (0.01 μg/ml) alone): 71.6 +/− 0.4% of Control
- Inhibition of U373 growth as single agent (in words) (GBM cell line U373; U373): dose dependent activity
- Concentration range of activity against U373 (in words) (GBM cell line U373; U373): active at nM concentrations

Molecule: O=C1SC(=O)[C@H]2[C@@H]1[C@@H]1CC[C@H]2O1 [endothal thioanhydride]
- Sensitivity of UMRC compared with U373 (in words) [1]: less sensitive
- Inhibition of PP1 activity (in words) (PP1): to some extent
- Sensitivity of MCF-7 compared with U373 (in words) [2]: as sensitive as U373
- IC50 (GBM cell line U373; [7]): 2.5 µM
- Inhibition of U373 growth as single agent (in words) (GBM cell line U373; U373): most potent inhibitor of GBMs in vitro; also recorded: greatest inhibition of growth
- Inhibition of PP2A activity (in words) (PP2A): inhibit the activity of PP2A
- Liver toxicity (in words) ([3]; mice): toxic to the liver of mice

Molecule: C[C@@]12C(=O)OC(=O)[C@]1(C)[C@H]1CC[C@@H]2O1 [cantharidin]
- Inhibition of PP1 activity (in words) (PP1): to some extent
- Inhibition of PP2A activity (in words) (PP2A): inhibit the activity of PP2A
- Urinary tract toxicity (in words) [3]: toxic to the urinary tract

Molecule: C=C1[C@@H](O)[C@@H]2O[C@]3(CC[C@H](/C=C/[C@@H](C)[C@@H]4CC(C)=C[C@@]5(O[C@H](C[C@@](C)(O)C(=O)O)CC[C@H]5O)O4)O3)CC[C@H]2O[C@@H]1[C@@H](O)C[C@H](C)[C@H]1O[C@@]2(CCCCO2)CC[C@H]1C [okadaic acid]
- Course of cell counts over time (in words) (GBM cell line U343 MG-A; 16 days): monotonically increased
- Effect on cell growth (in words) (GBM cell line U343 MG-A; 16 days (FIG. 2C)): modest effect on cell growth

Molecule: CC1=C(/C=C/C(C)=C/C=C/C(C)=C/C(=O)O)C(C)(C)CCC1 [ATRA, all-trans retinoic acid]
- Sensitivity of UMRC compared with U373 (in words) [1]: less sensitive
- Inhibition of MCF-7 growth (in words) [2]: showed an inhibition in growth
- Sensitivity of MCF-7 compared with U373 (in words) [2]: as sensitive as U373
- IC50 (GBM cell line U373; Homo sapiens, U373 MG, 168 h, U373, 7 days (FIG. 4A), read-out: IC50 of ATRA alone): > 50 µM
- activity at 25 µM (GBM cell line U373; Homo sapiens, U373 MG, U373, ATRA 25 uM alone, read-out: Percent of Control, Observed): 77%
- Inhibition of U373 growth as single agent (in words) (GBM cell line U373; U373): modest inhibition of growth

Molecule: O=C1OC(=O)[C@H]2[C@@H]1[C@H]1CC[C@H]2O1 [norcantharidin]
- White blood cell production (in words) [4]: stimulates white blood cell production
- 1-year survival (primary hepatoma; 244 patients with primary hepatoma, historical controls 17%): 30%
- Life span of patients with primary hepatoma (primary hepatoma; 244 patients, historical controls on standard chemotherapy 4.7 months): 11.1 months
- Sensitivity of UMRC compared with U373 (in words) [1]: less sensitive
- Sensitivity of MCF-7 compared with U373 (in words) [2]: as sensitive as U373
- IC50 (GBM cell line U373; [7]): 12 µM
- Relative toxicity in vivo (in words) ([3]; compared among endothal thioanhydride, norcantharidin, endothal): falling in between
- Urinary tract toxicity (in words) [3]: little or no urinary tract toxicity

Molecule: CC1=C(/C=C/C(C)=C/C=C/C(C)=C\C(=O)O)C(C)(C)CCC1 [Cis-RA, 13-cis retinoic acid]
- Percent of Control, Observed (GBM cell line U373; U373, Cis-RA 50 μM alone): 93.3 +/− 2.2% of Control
- Inhibition of U373 growth as single agent (in words) (GBM cell line U373; U373): modest inhibition of growth

Molecule: O=C(O)C1C2CCC(O2)C1C(=O)O (stereo not drawn) [endothal]
- Sensitivity of UMRC compared with U373 (in words) [1]: less sensitive
- Inhibition of PP1 activity (in words) (PP1): to some extent
- Inhibition of MCF-7 growth (in words) [2]: showed an inhibition in growth
- Sensitivity of MCF-7 compared with U373 (in words) [2]: as sensitive as U373
- IC50 (GBM cell line U373; [8]): 15 µM
- activity at 1 µM (GBM cell line U373; Homo sapiens, U373 MG, read-out: Percent of Control, U373, endothal 1 μM, 13-cis retinoic acid none): 100%
- activity at 5 µM (GBM cell line U373; Homo sapiens, U373 MG, read-out: Percent of Control, U373, endothal 5 μM, 13-cis retinoic acid none): 96%
- activity at 10 µM (GBM cell line U373; Homo sapiens, U373 MG, read-out: Percent of Control, U373, endothal 10 μM, 13-cis retinoic acid none): 76%
- Percent of Control, Observed (GBM cell line U373; U373, END 10 uM alone): 65%
- Percent of Control (GBM cell line U373; U373, endothal 10 μM, 13-cis retinoic acid none): 73%
- Inhibition of U373 growth as single agent (in words) (GBM cell line U373; U373): modest inhibition of growth
- Inhibition of PP2A activity (in words) (PP2A): inhibit the activity of PP2A

Molecule: CCCC(CCC)C(=O)O [valproic acid]
- Serum concentration tolerated in humans [5]: ~1000 µM
- Inhibition of U373 growth as single agent (in words) (GBM cell line U373; U373): dose dependent activity
- Concentration range of activity against U373 (in words) (GBM cell line U373; U373): in the mM range

Molecule: CN1CCN(C(=O)C2C(C(=O)O)[C@H]3CC[C@@H]2O3)CC1 (stereo partly drawn) [compound LB-1]
- IC50 (GBM cell line U373; [8]): 3 µM
- activity at 1 µM (GBM cell line U373; Homo sapiens, U373 MG, read-out: Percent of Control, Observed, U373, LB-1 1 uM alone (Table 1)): 78%
- Percent of Control, Observed (GBM cell line U373; U373, LB-1 1 μM alone (Table 3)): 97.9 +/− 1.0% of Control
- Percent of Control, Observed (GBM cell line U373; U373, LB-1 5 μM alone): 52.5 +/− 2.9% of Control
- Inhibition of U373 growth as single agent (in words) (GBM cell line U373; U373): modest inhibition of growth

B1: CNTF: ciliary neurotrophic factor, agent shown to induce astrocytic differentiation of neural stem cells in vitro (protein, UniProt P26441 1-200, looked up)
Ciliary neurotrophic factor: MAFTEHSPLTPHRRDLCSRSIWLARKIRSDLTALTESYVKHQGLNKNINLDSADGMPVASTDQWSELTEAERLQENLQAYRTFHVLLARLLEDQQVHFTPTEGDFHQAIHTLLLQVAAFAYQIEELMILLEYKIPRNEADGMPINVGDGGLFEKKLWGLKVLQELSQWTVRSIHDLRFISSHQTGIPARGSHYIANNKKM
- GFAP expression in BTSC (in words) ([6]; BTSC cultured with CNTF, 2-DGE and LCMS (FIG. 2A)): began to express GFAP
- Subcellular localization of N-CoR in BTSC (in words) ([6]; Western blot of cytoplasmic fraction of CNTF-treated BTSC (FIG. 2B)): translocation of N—CoR to the cytoplasm
- Time of peak cytoplasmic N-CoR and GFAP expression ([6]; following CNTF stimulation): 7 days

From patent US20090018142A9, “Use of phosphatases to treat tumors overexpressing N-CoR” (priority 2006, published 2009)
